Tested on: subjects with TRD
Test: Example 1 Part B: preliminary efficacy on depression rating scales in subjects with TRD
Type: in vivo, human
Conditions: for Effect size, HAM-D6 for ≤55 years old / Effect size, HAM-D6 for ≥36 MADRS at baseline / Effect size, CGI-S for ≤55 years old / Effect size, MADRS Total for ≤55 years old / Effect size, CGI-S for ≥36 MADRS at baseline / Effect size, MADRS Total for ≥36 MADRS at baseline / Effect size, IDS-SR Psychomotor Domain / Effect size, MADRS-06 (core) / Effect size, MADRS-08 (core-plus): post-hoc; for Effect size, HAM-D6 for ≤55 years old / Effect size, CGI-S for ≤55 years old / Effect size, MADRS Total for ≤55 years old: N = 14; for Effect size, HAM-D6 for ≥36 MADRS at baseline / Effect size, CGI-S for ≥36 MADRS at baseline / Effect size, MADRS Total for ≥36 MADRS at baseline: N = 16
Protocol: Primary Efficacy Endpoint: The primary efficacy endpoint was the difference between the compound A group and the placebo group in change from baseline in the Montgomery Asberg Depression Rating Scale (MADRS) total score at Day 2 (24 hours post dose).
Secondary Efficacy Endpoints: Secondary preliminary efficacy endpoints were the difference between the compound A group and the placebo group in: • change from baseline in the MADRS total score at each time point • change from baseline in the Hamilton Depression Rating Scale-6 Item (HAM-D6) total score at each time point • change from baseline in the IDS-SR30 total score and domain scores at each time point • change from baseline in the Clinical Global Impression-Severity (CGI-S) score at each time point
Preliminary Efficacy Evaluations: Other psychiatric evaluations were performed to assess preliminary efficacy in Part B only. These evaluations included the Montgomery-Asberg Depression Rating Scale (MADRS), the Hamilton Depression Rating Scale-6 Item (HAM-D6), the Clinical Global Impression-Severity (CGI-S), and the Inventory of Depressive Symptomatology (30-item, self-rated version) (IDS-SRN). Montgomery-Asberg Depression Rating Scale (MADRS).
The MADRS is a clinician-administered scale used to assess the range of symptoms that are most frequently observed in patients with major depression. The scale includes 10 items, each scored on a scale of 0 to 6. The MADRS was administered centrally by a third-party independent rater blinded to protocol, visit, and treatment.
Hamilton Depression Rating Scale-6 Item (HAM-D6): The HAM-D6 is a clinician-administered scale used to assess key domains of depressive symptomatology. The HAM-D6 was derived from the original 17-item version of the scale (HAM-D17). Five of the six items are scored on a scale of 0 to 4, and one item is scored on a scale of 0 to 2.
Clinical Global Impression-Severity (CGI-S): The CGI-S is a 7-point clinician-administered scale used to assess the severity of the patient's illness at the time of assessment relative to the clinician's past experience with patients who have the same diagnosis.
Inventory of Depressive Symptomatology (30-Item, Self-Rated Version) (IDS-SR30): The IDS-SR30 is a self-rated scale used to assess the severity of depressive symptomatology. The scale includes 30 items, each scored on a scale of 0 to 3.
The MADRS total score was centrally administered. The HAM-D6 was site-administered. The CGI-S was site physician administered. The IDS-SR was patient self-administered. MADRS-6 and MADRS-8 scores were then extrapolated post hoc from the MADRS total scores.
MADRS-10 items include apparent sadness, reported sadness, inner tension, reduced sleep, reduced appetite, concentration difficulties, lassitude, inability to feel, pessimistic thoughts, and suicidal thoughts. MADRS-6 items include apparent sadness, reported sadness, inner tension, lassitude, inability to feel, and pessimistic thoughts. MADRS-8 items include apparent sadness, reported sadness, inner tension, concentration difficulties, lassitude, inability to feel, pessimistic thoughts, and suicidal thoughts. HAM-D6 items include depressed mood, low self-esteem/guilt, work and interests, psychomotor retardation, psychic anxiety, and somatic symptoms.
When determining clinically significant antidepressant effect, it is recommended to use standardized effect size statistics. The correct use of depression rating scales in clinical trials of antidepressants is to indicate the effect size of the specific items of depression and to accept an effect size of 0.40 or higher as being the clinically significant effect. An effect size of ≥0.2 indicates early improvement. An effect size of ≥0.4 indicates a clinical response.

[1] = single 2400 mg vs placebo, 12 h
[2] = single 2400 mg vs placebo, 24 h
[3] = single 2400 mg vs placebo, 24 h, N = 31
[4] = single 2400 mg vs placebo, 24 h, prespecified, N = 31
[5] = single 2400 mg vs placebo, 36 h
[6] = single 2400 mg vs placebo, 48 h
[7] = single 2400 mg vs placebo, 48 h, N = 31
[8] = single 2400 mg vs placebo, 48 h, prespecified, N = 31
[9] = single 2400 mg vs placebo, 72 h
[10] = single 2400 mg vs placebo, 72 h, N = 31
[11] = single 2400 mg vs placebo, 72 h, prespecified, N = 31
[12] = single 2400 mg, 24 hours post dose

CC(C)(C[C@H](N)C(=O)O)C(F)F [Compound A, (S)-2-amino-5,5-difluoro-4,4-dimethylpentanoic acid]
duration of numerical benefits on HAM-D6 (single 2400 mg): 24 to 72 h
onset of efficacy on HAM-D6 (single 2400 mg): as early as two hours post-dose
MADRS items with greater impact than placebo (single 2400 mg vs placebo): inner tension, concentration, pessimistic thoughts, and inability to feel
Effect size, HAM-D6 for ≤55 years old (single 2400 mg vs placebo, 2 h): 0.8
Effect size, HAM-D6 for ≥36 MADRS at baseline (single 2400 mg vs placebo, 2 h): 1.0
Effect size, HAM-D6 (single 2400 mg vs placebo, 2 h, prespecified, N = 31): 0.6
Effect size, HAM-D6 for ≤55 years old (single 2400 mg vs placebo, 4 h): 1.0
Effect size, HAM-D6 for ≥36 MADRS at baseline (single 2400 mg vs placebo, 4 h): 1.1
Effect size, HAM-D6 (single 2400 mg vs placebo, 4 h, prespecified, N = 31): 0.8
Effect size, HAM-D6 for ≤55 years old (single 2400 mg vs placebo, 8 h): 1.1
Effect size, HAM-D6 for ≥36 MADRS at baseline (single 2400 mg vs placebo, 8 h): 0.8
Effect size, HAM-D6 (single 2400 mg vs placebo, 8 h, prespecified, N = 31): 0.7
Effect size, HAM-D6 for ≤55 years old [1]: 1.3
Effect size, HAM-D6 for ≥36 MADRS at baseline [1]: 0.9
Effect size, HAM-D6 (single 2400 mg vs placebo, 12 h, prespecified, N = 31): 0.8
Effect size, CGI-S for ≤55 years old [2]: 0.2
Effect size, HAM-D6 for ≤55 years old [2]: 0.9
Effect size, MADRS Total for ≤55 years old [2]: 0.6
Effect size, CGI-S for ≥36 MADRS at baseline [2]: 0.2
Effect size, HAM-D6 for ≥36 MADRS at baseline [2]: 0.8
Effect size, MADRS Total for ≥36 MADRS at baseline [2]: 0.4
Effect size, IDS-SR Psychomotor Domain [3]: 0.8
Effect size, MADRS-06 (core) [3]: 0.3
Effect size, MADRS-08 (core-plus) [3]: 0.3
Effect size, CGI-S Change from baseline [4]: -0.1
Effect size, HAM-D6 [4]: 0.5
Effect size, IDS-SR 30 Total Score [4]: 0.3
Effect size, MADRS Total Score (prelim. primary @24 h) [4]: 0.1
Effect size, HAM-D6 for ≤55 years old [5]: 1.3
Effect size, HAM-D6 for ≥36 MADRS at baseline [5]: 0.9
Effect size, HAM-D6 (single 2400 mg vs placebo, 36 h, prespecified, N = 31): 0.5
Effect size, CGI-S for ≤55 years old [6]: 0.4
Effect size, HAM-D6 for ≤55 years old [6]: 1.2
Effect size, MADRS Total for ≤55 years old [6]: 0.6
Effect size, CGI-S for ≥36 MADRS at baseline [6]: 0.7
Effect size, HAM-D6 for ≥36 MADRS at baseline [6]: 0.9
Effect size, MADRS Total for ≥36 MADRS at baseline [6]: 0.3
Effect size, IDS-SR Psychomotor Domain [7]: 0.3
Effect size, MADRS-06 (core) [7]: 0.3
Effect size, MADRS-08 (core-plus) [7]: 0.3
Effect size, CGI-S Change from baseline [8]: 0.1
Effect size, HAM-D6 [8]: 0.5
Effect size, IDS-SR 30 Total Score [8]: 0.3
Effect size, MADRS Total Score [8]: 0.2
Effect size, CGI-S for ≤55 years old [9]: 0.2
Effect size, HAM-D6 for ≤55 years old [9]: 1.1
Effect size, MADRS Total for ≤55 years old [9]: 0.3
Effect size, CGI-S for ≥36 MADRS at baseline [9]: 1.0
Effect size, HAM-D6 for ≥36 MADRS at baseline [9]: 0.8
Effect size, MADRS Total for ≥36 MADRS at baseline [9]: 0.3
Effect size, IDS-SR Psychomotor Domain [10]: 0.6
Effect size, MADRS-06 (core) [10]: 0.1
Effect size, MADRS-08 (core-plus) [10]: 0.1
Effect size, CGI-S Change from baseline [11]: 0.2
Effect size, HAM-D6 [11]: 0.4
Effect size, IDS-SR 30 Total Score [11]: 0.3
Effect size, MADRS Total Score [11]: -0.1
MADRS concentration scores [12]: marked improvement
MADRS item Apparent Sadness, % CFB [12]: −12.3%
MADRS item Apparent Sadness, CFB [12]: −0.56
MADRS item Apparent Sadness, score Day 1 [12]: 4.00
MADRS item Concentration, % CFB [12]: −23.1%
MADRS item Concentration, CFB [12]: −0.94
MADRS item Concentration, score Day 1 [12]: 3.13
MADRS item Inability to Feel, % CFB [12]: −12.9%
MADRS item Inability to Feel, CFB [12]: −0.56
MADRS item Inability to Feel, score Day 1 [12]: 3.81
MADRS item Inner Tension, % CFB [12]: −40.5%
MADRS item Inner Tension, CFB [12]: −1.06
MADRS item Inner Tension, score Day 1 [12]: 1.56
MADRS item Lassitude, % CFB [12]: −1.8%
MADRS item Lassitude, CFB [12]: −0.06
MADRS item Lassitude, score Day 1 [12]: 3.44
MADRS item Pessimistic Thoughts, % CFB [12]: −23.3%
MADRS item Pessimistic Thoughts, CFB [12]: −0.63
MADRS item Pessimistic Thoughts, score Day 1 [12]: 2.06
MADRS item Reduced Appetite, % CFB [12]: −14.3%
MADRS item Reduced Appetite, CFB [12]: −0.44
MADRS item Reduced Appetite, score Day 1 [12]: 2.63
MADRS item Reduced Sleep, % CFB [12]: −7.4%
MADRS item Reduced Sleep, CFB [12]: −0.31
MADRS item Reduced Sleep, score Day 1 [12]: 3.94
MADRS item Reported Sadness, % CFB [12]: −19.2%
MADRS item Reported Sadness, CFB [12]: −0.94
MADRS item Reported Sadness, score Day 1 [12]: 3.94
MADRS item Suicidal Thoughts, % CFB [12]: −9.1%
MADRS item Suicidal Thoughts, CFB [12]: −0.06
MADRS item Suicidal Thoughts, score Day 1 [12]: 0.63
MADRS-10 TOTAL SCORE, CFB [12]: −5.5
Change in HAM-D6 Total Score (single 2400 mg, at 2 h): −2.0
Change in HAM-D6 Total Score, Difference Compound A vs Placebo (single 2400 mg, at 2 h): −1.3
Change in HAM-D6 Total Score (single 2400 mg, at 4 h): −2.6
Change in HAM-D6 Total Score, Difference Compound A vs Placebo (single 2400 mg, at 4 h): −1.8
Change in HAM-D6 Total Score (single 2400 mg, at 8 h): −2.9
Change in HAM-D6 Total Score, Difference Compound A vs Placebo (single 2400 mg, at 8 h): −1.7
Change in HAM-D6 Total Score (single 2400 mg, at 12 h): −3.9
Change in HAM-D6 Total Score, Difference Compound A vs Placebo (single 2400 mg, at 12 h): −2.7
Change in HAM-D6 Total Score (single 2400 mg, at 24 h): −3.5
Change in HAM-D6 Total Score, Difference Compound A vs Placebo (single 2400 mg, at 24 h): −1.5
Change in HAM-D6 Total Score (single 2400 mg, at 36 h): −4.3
Change in HAM-D6 Total Score, Difference Compound A vs Placebo (single 2400 mg, at 36 h): −1.8
Change in HAM-D6 Total Score (single 2400 mg, at 48 h): −3.7
Change in HAM-D6 Total Score, Difference Compound A vs Placebo (single 2400 mg, at 48 h): −1.3
Change in HAM-D6 Total Score (single 2400 mg, at 72 h): −4.1
Change in HAM-D6 Total Score, Difference Compound A vs Placebo (single 2400 mg, at 72 h): −1.3
HAM-D6 scores (single dose 2400 mg, FIG. 2): rapid and sustained efficacy

— US11723890B2, “Methods of treatment using an mTORC1 modulator” (Navitor Pharmaceuticals, Inc., priority 2019, dated 2023)
